Values joined by “and” are separate entries in the source; they are usually repeats but may differ in a detail not shown here. Equal values may be shown once.
Assays:
prolactin release [1] = assay: Prolactin release in vivo; details: in vivo
growth hormone release [2] = details: cited from earlier work
prolactin release [3] = details: cited from earlier work
rats [4] = details: cited from earlier work
growth hormone release [5] = assay: Growth hormone release in vivo; details: in vivo
[6] = currently available agents; cited from earlier work
rats [7] = type: in vivo, rat; details: 50 mg/kg intravenously
Protocol: They were then food deprived for 24 hours but allowed free access to water. Five rats received saline, four received naloxone and three naloxazone. […] The animals were then given free access to food for 1 hour and their weight gain noted. Thus, eating was measured 24 hours after the administration of the drugs and after 24 hours of food deprivation.

For C=CCN1CC[C@]23c4c5ccc(O)c4O[C@H]2C(=O)CC[C@@]3(O)[C@H]1C5 [Naloxone, naloxone], the “effect on prolactin release (in words)” value (prolactin release [1]) is listed as “inhibits morphine's release of both hormones”, the “effect on basal levels of growth hormone, naloxone (in words)” value (growth hormone release [2]) is listed as “lowering of the basal levels of prolactin and growth hormone” and the “effect on basal levels of prolactin, naloxone (in words)” value (prolactin release [3]) is listed as “lowering of the basal levels of prolactin and growth hormone”. For the same compound, the “suppression of eating behavior (known)” value (rats [4]) was “effectively suppress eating behavior in rats”, the “effect on growth hormone release (in words)” value (growth hormone release [5]) was “inhibits morphine's release of both hormones” and the “half-life (in words)” value [6] was “short half-life”. For the same compound, the “effect on feeding (in words)” value (rats [7]) was “inability of naloxone to effect feeding behavior”, the “Amounts eaten, individual animals” value (rats [7]; 1 hour free access to food, 24 hours after drug) was 4.1 grams and 5.3 grams and 4.4 grams and 3.7 grams and the “Amounts eaten, Mean ± SEM” value (rats [7]; 1 hour free access to food, 24 hours after drug, saline 4.78 ± 0.42, significant at the p 0.05 level (ANOVA)) was 4.38 ± 0.34 grams.
